Measured values: PubChem BioAssay (NCI)
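96-well plates; 48 h exposure; 5 concentrations. Endpoints by linear interpolation between flanking doses. Not reached: highest tested concentration assigned. GI50 = concentration required for 50% inhibition of growth. TGI is the concentration that stops growth completely.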

Tests used:
Test in all cases: NCI tumour cell line growth inhibition, 48 h
A549 NSCLC = system: A549 NSCLC
SK-OV-3 ovarian = system: SK-OV-3 ovarian
OVCAR-3 ovarian = system: OVCAR-3 ovarian
NCI-H460 lung = system: NCI-H460 lung
HS 578T breast = system: HS 578T breast
MCF7 breast = system: MCF7 breast
786-0 renal = system: 786-0 renal
SW-620 colon = system: SW-620 colon
RXF 393 renal = system: RXF 393 renal
NCI-H23 lung = system: NCI-H23 lung

Row | SMILES | GI50 (A549 NSCLC) | TGI (A549 NSCLC) | GI50 (SK-OV-3 ovarian) | TGI (SK-OV-3 ovarian) | GI50 (OVCAR-3 ovarian) | TGI (OVCAR-3 ovarian) | GI50 (NCI-H460 lung) | TGI (NCI-H460 lung) | GI50 (HS 578T breast) | TGI (HS 578T breast) | GI50 (MCF7 breast) | TGI (MCF7 breast) | GI50 (786-0 renal) | TGI (786-0 renal) | GI50 (SW-620 colon) | TGI (SW-620 colon) | GI50 (RXF 393 renal) | TGI (RXF 393 renal) | GI50 (NCI-H23 lung) | TGI (NCI-H23 lung)
1 | CC[C@@H](C)Nc1cc(C(=O)NC2CC3CCC(C2)N3c2ccc(C(=O)C3CC3)cn2)c(C)cc1C(N)=O (stereo partly specified) | 0.0343 µM | > 100 µM | < 0.0114 µM | > 100 µM | 0.0672 µM | > 88.1 µM | 0.0299 µM | > 54.2 µM | 0.186 µM | > 100 µM | < 0.0172 µM | > 59.6 µM | 0.152 µM | > 100 µM | 0.0323 µM | > 100 µM | 0.0516 µM | > 100 µM | 0.0589 µM | > 100 µM
2 | C1CCN2CC3CCCN4CCCC(C2C1)C34 (stereo unspecified) |  | > 100 µM |  | > 100 µM |  | > 100 µM |  | > 100 µM |  | > 100 µM |  | > 100 µM |  | > 100 µM |  | > 100 µM |  | > 100 µM |  | > 100 µM
3 | CCCN1C(=O)/C(=C/c2ccc(O)cc2)SC1=Nc1ccc(OC)cc1 | 12.5 µM | 26.1 µM | 18.1 µM | 41.9 µM | 17.3 µM | 42.8 µM | 17.6 µM | 66.7 µM | 4.48 µM | 23.3 µM | 23.2 µM | 94.2 µM | 16 µM | 34.6 µM | 18 µM | 48.3 µM | 11.7 µM | 28.3 µM | 16.2 µM | 32.4 µM
4 | O=c1c(-c2ccc(O)cc2)coc2cc(OC3OC(CO)C(O)C(O)C3O)cc(O)c12 (stereo unspecified) | > 10 µM | > 100 µM | > 100 µM | > 100 µM |  | > 100 µM | > 10 µM | > 100 µM |  | > 100 µM | > 100 µM | > 100 µM | > 10 µM | > 100 µM |  | > 10 µM | > 10 µM | > 100 µM | > 100 µM | > 100 µM
5 | CC(C)(C)c1ccc(O)c(CN(Cc2cc(C(C)(C)C)ccc2O)C2CCCCC2)c1 |  | > 56.7 µM |  | 47.8 µM |  | 34.9 µM |  | 31.5 µM |  | 45.3 µM |  | 35.5 µM |  | 29.8 µM |  | 35.1 µM |  | 30 µM |  | 48.7 µM
6 | NC(=Nc1nc(-c2ccccn2)cc2ccccc12)c1ccccn1 | 0.255 µM | > 48.7 µM | 0.263 µM | > 19.4 µM | 0.00188 µM | > 100 µM | 0.099 µM |  | 0.316 µM | > 79.4 µM | 0.148 µM | > 100 µM | 0.0177 µM |  | 0.0505 µM | > 100 µM | 0.32 µM | 0.795 µM | 0.0743 µM | > 61.6 µM
7 | N#Cc1c(N)nc(N2CCSCC2)c(C#N)c1-c1ccc(O)cc1 | 30.7 µM | > 100 µM | 24.5 µM | 98.9 µM | 17.5 µM | 44.8 µM | 13.4 µM | 29.5 µM | 25.1 µM | > 100 µM | 14.1 µM | 40.2 µM | 13.5 µM | 30.4 µM | 27.5 µM | > 100 µM | 35.3 µM | > 100 µM | 17.4 µM | 36 µM
8 | CCOC(=O)c1csc(NC(=O)COc2cccc(/C=C3\CSc4ccccc4C3=O)c2)n1 | 2.41 µM | 18.5 µM | 13.1 µM | 25.9 µM | 0.158 µM | 0.332 µM | 9.3 µM | 25 µM | 1.45 µM | 7.36 µM | 1.13 µM | 7.25 µM | 0.561 µM | 1.69 µM | 0.992 µM | 2.7 µM | 2.86 µM | 11.2 µM | 0.105 µM | 0.57 µM
9 | C[C@@H]1CC[C@@H]2[C@@H](C)C[C@H]3[C@@H]4C(C)(C)OC(=O)[C@]4(C)C(=O)[C@@]23C1=O |  | > 100 µM |  | > 100 µM | 75.9 µM | > 100 µM |  | > 100 µM |  | > 100 µM |  | > 100 µM |  | > 100 µM |  | > 100 µM | > 100 µM | > 100 µM |  | > 100 µM
10 | CC(=O)NC(CCCCN(Cc1ccccc1)C(=O)N(CCCl)N=O)C(=O)NCc1ccccc1 (stereo unspecified) |  | 49.5 µM |  | > 76.3 µM |  | > 100 µM |  | 42.9 µM |  | 49.7 µM |  | > 100 µM |  | 24.9 µM |  | > 70.7 µM |  | 51.3 µM |  | 50.3 µM
11 | COc1cc(-c2ccc(NC(=O)NC3CC3)c(OC)c2)ccc1NC(=O)NC1CC1 | 3.89 µM | > 100 µM | 23.8 µM | > 100 µM | 25.7 µM | > 100 µM | 1.51 µM | 15.7 µM |  | > 28.6 µM | 5.69 µM | > 100 µM | 29.5 µM | > 100 µM | 5.39 µM | > 100 µM | 1.16 µM | 4.42 µM | > 68.5 µM | > 100 µM
12 | C/C=C(/C)C(=O)OC1C=C(CO)C(=O)C(OC(=O)C(C)(O)C(C)Cl)C1C(C)C (stereo unspecified) | 2.81 µM | 9.36 µM | 4.5 µM | 14.9 µM | 0.648 µM | 1.98 µM | 2.28 µM | 8.62 µM | 4.78 µM | 24.4 µM | 0.552 µM | 3.09 µM | 1.67 µM | 3.12 µM | 1.69 µM | 4.08 µM | 1.6 µM | 3.13 µM | 1.84 µM | 4.42 µM
13 | CCCCCCN(C)Cc1ccc(OCCOc2ccc(CN(C)CCCCCC)cc2)cc1 | 1.4 µM | 2.91 µM | 1.64 µM | 3.09 µM | 1.36 µM | 2.91 µM | 1.35 µM | 2.99 µM | 1.47 µM | 3.97 µM | 1.4 µM | 2.79 µM | 1.44 µM | 2.8 µM | 1.48 µM | 3.13 µM | 0.834 µM | 2.15 µM | 1.52 µM | 3.42 µM
14 | NNC(=S)Nc1cccc(Cl)c1 |  | > 100 µM |  | > 100 µM |  | 92.3 µM |  | > 100 µM |  | > 100 µM |  | > 100 µM |  | > 100 µM |  | > 100 µM |  | > 100 µM |  | > 100 µM
